# From patent US11553718B2, “Mic reduction with lithium ions” (priority 2014, dated 2023)
# Columns and labels:
# bacterial strain rOmyAK = test: microbe, parasite or virus in culture; type: cell-based, Pseudomonas mendocina; conditions: for bacterial count: rOmy AK; for MIC ratio (MICwithout Li/MICLi) / MIC active/aequeous: rOmyAK
# Protocol: (§1) When not otherwise indicated, the quoted bacterial counts (values are in cfu/plate) in the Tables here below are determined after 2 days following plate-out and incubation at 30° C. The counting method was as follows. The aqueous preparations were stirred well with a cotton swap (e.g. Applimed SA, No. 1102245); the excess aqueous preparation was removed by dipping it gently to the side of the aqueous preparation container, leaving approximately 200 mg of aqueous preparation on the swap. […] TSA plates were then incubated for 48 h at 30° C. Colony forming units (cfu) were then counted and reported as cfu/plate. Counts from 100 to 999 cfu per plate are reported as ≥100 cfu/plate. Counts of 1000 cfu and above per plate are reported as ≥1000 cfu/plate. Yeast and moulds were counted as described for bacteria with the following exceptions, a) Sabouraud Dextrose Agar (SDA) containing Chloramphenicol (e.g. heipha Dr. Miller GmbH, No. 1460030020) were used instead of TSA, b) SDA plates were incubated at 25° for 5 days and c) cfu were counted and reported after 48 h and 5 days of incubation. Yeast and moulds counts from 20 to 99 cfu per plate are reported as […]. Yeast and moulds counts of 100 cfu and above per plate are reported as >100 cfu/plate.
# (§2) For determining the MIC, the tested microorganism, i.e. the strain of bacteria and/or strain of yeast and/or strain of mould, were freshly grown until the end of the logarithmic growth phase according to the requirements of the individual species to a density of approximately 10^7-10^9 cells/ml.
# (§3) For example, fresh bacteria cultures of the bacteria E. coli, e.g. E. coli ATCC 11229, and S. aureus, e.g. S. aureus strains DSMZ 346, were prepared by inoculation of 3 ml liquid growth media (tryptic soy broth, e.g. Fluka Cat. No. 22092) from a stock culture and incubation for 16 to 20 h at 30° C. with agitation at 150 rotations per minutes (rpm) leading to a cell density of approximately 2×10^8 cells/ml. Fresh cultures of resistant bacteria, adapted to the conditions in biocide containing CaCO3 slurries, were prepared by inoculation of 50 g 75 wt.-% solid content CaCO3 slurry from a stock culture and incubated for 14 to 28 days at 30° C. without agitation.
# (§4) Lithium ions were added to the aqueous preparation (e.g. CaCO3 slurry) by the addition of a water soluble lithium salt. For example to 50 g CaCO3 slurry with a solid content of 75% (w/w) 1.177 ml of a 74 g/Li2CO3 suspension was added and mixed well leading to a lithium ion concentration of 172 mM or 1205 ppm in the water phase. As another example to 50 g CaCO3 slurry with a solid content of 75 wt.-% (w/w) 0.04 ml of a 292 g/L Li3Citrate (2M) solution was added and mixed well leading to a lithium ion concentration of 19 mM or 135 ppm in the water phase.
# (§5) The biocide to be tested was added to the aqueous preparation (e.g. CaCO3 slurry with or without lithium ions) in increasing concentrations starting from 0 ppm (without biocide). The concentrations ranged from concentrations higher than recommended by the supplier, to very low amounts (as low as 1 ppm or lower). Of each biocide concentration a 3 ml sample of aqueous preparation was combined with 20 μl fresh bacterial culture.
# (§6) All samples were incubated at 30° C. for 24 h. After incubation colony forming units (cfu) per plate (cfu/plate) were determined as described above under bacterial count.
# (§7) The MIC for bacteria is defined as the lowest concentration of biocide in the presence or absence of lithium ion amongst all samples tested, where the bacterial concentration dropped below 100 cfu/plate. The MIC for yeast and mould is defined as the lowest concentration of biocide in the presence or absence of lithium ion amongst all samples tested, where the microbial concentration dropped below 20 cfu/plate.
# E. coli strain ATCC11229 = test: MIC determination / bacterial count in CaCO3 slurry with or without lithium ions; type: cell-based; conditions: E. coli; Li^+ 197 mM (1380 ppm), Li2CO3
# Protocol: as §1, §2, §3, §4, §5, §6, §7
# [1] = system: S. aureus strain DSMZ 346; test: as above; type: cell-based; conditions: S. aureus; Li^+ 329 mM (2305 ppm), Li2CO3
# Protocol: as §1, §2, §3, §4, §5, §6, §7
# rGDA/IT (rGDA-IT) strain = test: MIC determination in CaCO3 slurry with or without lithium ions; type: cell-based, Pseudomonas mendocina; conditions: Li^+ 197 mM (1380 ppm), Li2CO3
# Protocol: as §1, §2, §3, §4, §5, §6, §7
structure (smiles),measurement,setting,value
"Cn1sccc1=O [MIT, 2-Methyl-2H-isothiazolin-3-one]",bacterial count,"bacterial strain rOmyAK; 18 ppm MIT, 329 mM Li^+",≥100 cfu/plate
same,bacterial count,"bacterial strain rOmyAK; 18 ppm MIT, no Li^+",≥1000 cfu/plate
same,bacterial count,"bacterial strain rOmyAK; 35 ppm MIT, 329 mM Li^+",68 cfu/plate
same,bacterial count,"bacterial strain rOmyAK; 35 ppm MIT, no Li^+",≥100 cfu/plate
same,bacterial count,"bacterial strain rOmyAK; 106 ppm MIT, 329 mM Li^+",0 cfu/plate
same,bacterial count,"bacterial strain rOmyAK; 106 ppm MIT, no Li^+",0 cfu/plate
same,MIC ratio (MICwithout Li/MICLi),"bacterial strain rOmyAK; Li^+ 197 mM (1380 ppm), Li2CO3",1
same,MIC active/aequeous,"bacterial strain rOmyAK; Li^+ 329 mM (2305 ppm), Li2CO3",35 ppm
same,MIC ratio (MICwithout Li/MICLi),"bacterial strain rOmyAK; Li^+ 329 mM (2305 ppm), Li2CO3",3
same,MIC ratio (MICwithout Li/MICLi),"bacterial strain rOmyAK; Li^+ 423 mM (2964 ppm), Li2CO3",6
same,MIC active/aequeous,bacterial strain rOmyAK; no Li^+,106 ppm
same,MIC ratio (MICwithout Li/MICLi),E. coli strain ATCC11229,>2.5
same,MIC ratio (MICwithout Li/MICLi),[1],>5
same,MIC ratio (MICwithout Li/MICLi),rGDA/IT (rGDA-IT) strain,1.67
